Data taken from ChEMBL document CHEMBL3351357, “The enantiomers of the 1',6'-isomer of neplanocin A: synthesis and antiviral properties” (Bioorg Med Chem, 2014).

Columns and labels:
Measles morbillivirus = assay: Antiviral activity against Measles virus infected in african green monkey Vero cells assessed as inhibition of viral-induced cytopathicity; assay type: functional, organism-based
[1] = Cytotoxicity against human HG23 cells; assay type: cell-based
[2] = Cytotoxicity against african green monkey Vero cells; assay type: cell-based; settings: chlorocebus sabaeus
Vaccinia virus = assay: Antiviral activity against Vaccinia virus infected in HFF cells assessed as inhibition of viral-induced cytopathicity; assay type: functional, organism-based, Orthopoxvirus vaccinia
Dengue virus = assay: Antiviral activity against Dengue virus infected in african green monkey Vero cells assessed as inhibition of viral-induced cytopathicity; assay type: functional, organism-based
Norovirus = assay: Antiviral activity against Norovirus infected in HG23 cells assessed as inhibition of viral-induced cytopathicity; assay type: functional, cell-based
Human betaherpesvirus 5 = assay: Antiviral activity against human cytomegalovirus infected in HFF cells assessed as inhibition of viral-induced cytopathicity; assay type: functional, organism-based; settings: Human betaherpesvirus 5, HFF
Ebolavirus = assay: Antiviral activity against Ebolavirus Zaire infected in african green monkey Vero cells assessed as inhibition of viral-induced cytopathicity; assay type: functional, cell-based; settings: Orthoebolavirus
Hepatitis B virus = assay: Antiviral activity against Hepatitis B virus infected in HepG2.2.15 cells assessed as inhibition of viral-induced cytopathicity; assay type: functional, organism-based, HepG2 2.2.15
[3] = Selectivity index, ratio of CC50 for human HepG2.2.15 cells to EC50 for Hepatitis B virus; assay type: toxicity; settings: read-out: Selectivity Index
[4] = Selectivity index, ratio of CC50 for human HFF cells to EC50 for Vaccinia virus; assay type: toxicity, cell-based; settings: read-out: Selectivity Index
[5] = Selectivity index, ratio of CC50 for human HG23 cells to EC50 for Norovirus; assay type: toxicity, cell-based; settings: read-out: Selectivity Index
[6] = Selectivity index, ratio of CC50 for african green monkey Vero cells to EC50 for Dengue virus; assay type: toxicity, cell-based; settings: read-out: Selectivity Index
[7] = Selectivity index, ratio of CC50 for african green monkey Vero cells to EC50 for Ebola virus Zaire virus; assay type: toxicity, cell-based; settings: read-out: Selectivity Index
[8] = Selectivity index, ratio of CC50 for human HFF cells to EC90 for Vaccinia virus; assay type: toxicity, cell-based; settings: read-out: Selectivity Index
[9] = Cytotoxicity against human HepG2.2.15 cells; assay type: cell-based, HepG2 2.2.15
[10] = Selectivity index, ratio of CC50 for african green monkey Vero cells to EC50 for Measles virus; assay type: toxicity, cell-based; settings: read-out: Selectivity Index
[11] = Cytotoxicity against human HFF cells; assay type: cell-based
[12] = Selectivity index, ratio of CC50 for human HFF cells to EC90 for human cytomegalovirus; assay type: toxicity, cell-based; settings: read-out: Selectivity Index
[13] = Selectivity index, ratio of CC50 for human HG23 cells to EC90 for Norovirus; assay type: toxicity, cell-based; settings: read-out: Selectivity Index
[14] = Selectivity index, ratio of CC50 for human HFF cells to EC50 for human cytomegalovirus; assay type: toxicity, cell-based; settings: read-out: Selectivity Index
[15] = Inhibition of rabbit erythrocyte S-adenosylhomocysteine hydrolase; set-up: species or system Oryctolagus cuniculus
[16] = Selectivity index, ratio of CC50 for human HepG2.2.15 cells to EC90 for Hepatitis B virus; assay type: toxicity; settings: read-out: Selectivity Index

Q: With `Nc1ncnc2c1ncn2C1=C[C@@H](CO)[C@H](O)[C@@H]1O` as the compound, how does the EC50 (Measles morbillivirus) read?
A: The EC50 was 720 nM.

Q: What about the CC50 [1] of the same compound?
A: Its CC50 is > 300 µM.

Q: And the CC50 [2]?
A: The CC50 was 11.4 µM.

Q: What about the EC50 (Vaccinia virus; hff) of the same compound?
A: The EC50 was “Not Active”.

Q: What about the EC50 (Dengue virus) of the same compound?
A: Its EC50 is 1300 nM.

Q: And the EC50 (Norovirus)?
A: Its EC50 is 11 µM.

Q: What about the EC90 (Norovirus) of the same compound?
A: Its EC90 is 89 µM.

Q: What about the EC50 (Human betaherpesvirus 5) of the same compound?
A: The EC50 was 3700 nM.

Q: And the EC90 (Human betaherpesvirus 5)?
A: Its EC90 is 6.86 µM.

Q: And the EC50 (Ebolavirus)?
A: The EC50 was 760 nM.

Q: What about the EC50 (Hepatitis B virus; hepg2 2.2.15) of the same compound?
A: The EC50 was “Not Active”.

Q: Which EC50 (Measles morbillivirus) does the source give for `Nc1ncnc2c1ncn2C1=C[C@H](CO)[C@@H](O)[C@H]1O` here?
A: The EC50 was < 380 nM.

Q: And the CC50 [1]?
A: Its CC50 is > 100 µM.

Q: And the selectivity ratio [3]?
A: Its selectivity ratio is > 14.

Q: And the selectivity ratio [4]?
A: Its selectivity ratio is > 30.

Q: And the selectivity ratio [5]?
A: Its selectivity ratio is > 128.

Q: What about the CC50 [2] of the same compound?
A: The CC50 was 1.3 µM.

Q: What about the EC90 (Vaccinia virus; Orthopoxvirus vaccinia, HFF) of the same compound?
A: The EC90 was > 300 µM.

Q: And the EC50 (Vaccinia virus; Orthopoxvirus vaccinia, HFF, read-out: EC50)?
A: The EC50 was 10.1 µM.

Q: What about the selectivity ratio [6] of the same compound?
A: Its selectivity ratio is 17.

Q: What about the EC50 (Dengue virus) of the same compound?
A: The EC50 was 1100 nM.

Q: What about the selectivity ratio [7] of the same compound?
A: Its selectivity ratio is 3.5.

Q: And the selectivity ratio [8]?
A: The selectivity ratio was 1.

Q: What about the CC50 [9] of the same compound?
A: The CC50 was > 100 µM.

Q: And the EC50 (Norovirus)?
A: Its EC50 is 0.784 µM.

Q: What about the EC50 (Human betaherpesvirus 5) of the same compound?
A: Its EC50 is 110 nM.

Q: What about the EC90 (Human betaherpesvirus 5) of the same compound?
A: The EC90 was > 10 µM.

Q: And the EC50 (Ebolavirus)?
A: The EC50 was 380 nM.

Q: What about the selectivity ratio [10] of the same compound?
A: The selectivity ratio was > 3.5.

Q: What about the EC90 (Hepatitis B virus; Hepatitis B virus, HepG2 2.2.15) of the same compound?
A: Its EC90 is 35 µM.

Q: And the EC50 (Hepatitis B virus; Hepatitis B virus, HepG2 2.2.15, read-out: EC50)?
A: The EC50 was 7.2 µM.

Q: What about the CC50 [11] of the same compound?
A: The CC50 was > 49.3 µM.

Q: And the selectivity ratio [12]?
A: Its selectivity ratio is < 4.

Q: And the selectivity ratio [13]?
A: Its selectivity ratio is > 11.

Q: What about the selectivity ratio [14] of the same compound?
A: The selectivity ratio was 448.

Q: And the IC50 [15]?
A: The IC50 was 0.9 nM.

Q: What about the selectivity ratio [16] of the same compound?
A: The selectivity ratio was > 3.

Q: Which IC50 [15] does the source give for `Nc1ncnc2c1ncn2[C@@H]1C=C(CO)[C@@H](O)[C@H]1O` [NEOPLANOCIN A] here?
A: Its IC50 is 0.9 nM.
